# Several values for one entry are separate records, joined by “and”; a condition that tells them apart may be missing. Equal values may be shown once.
# Legend:
# [1] = In vitro filtering parameters of O/W sunscreen formulation containing 3% compound (modified Diffey-Robson, PMMA plates); settings: 3% in formulation, before irradiation
# Description: All synthesized compounds were formulated at 3% and their photoprotective efficacy, determined by spectrophotometric measurements using the modified Diffey-Robson method, was compared with that of the lead compound PBSA (used at 3% in the same formulation) and using the base without active as a control (Table 2).
# The synthesized compounds were incorporated at a concentration of 3% in a typical oil-in-water sunscreen formulation, to evaluate the filtering parameters, and have the following ingredient composition:
# INCI (International Nomenclature Cosmetic Ingredients): aqua, glycerin, Euxyl PE 9010, xanthan gum, Tribehenin PEG-20 Esters, cetearyl alcohol, dicaprylyl carbonate, PPG-26-Buteth-26 (and) PEG-40 Hydrogenated Castor Oil (and) water, C12-C15 Alkyl Benzoate, and Sodium hydroxide (sol. 10%).
# As previously reported the protocol indicates to spread 32.5 mg of each formulation on 25 cm^2 PMMA plates with the fingers. Each formulation was tested in triplicate, and five measurements were recorded for each dish, following a 15–30 min incubation in the dark at room temperature. UV transmittance data was recorded using a UV-VIS spectrophotometer in the range 290–400 nm. The blank plate, SPF, UVA-PF and critical wavelength were obtained by SPF Calculator software (version 2.1), Shimadzu, Milan, Italy).
# [2] = UV spectra in solution (MeOH-DMSO): λmax and molar extinction coefficient; type: physicochemical; settings: for ε (molar extinction coefficient): at λmax, Lambert-Beer equation, in M-1 cm-1 (unit assumed); for λmax: solution in MeOH-DMSO, 290–400 nm
# Experimental: We next investigated the protective potential against UV radiation of each compound. Specifically, in vitro tests were conducted to determine the parameters related to absorption in the UV spectrum and those fundamental to the relative evaluation of the filtering potential and thus candidature as possible UV sunscreen ingredients of the candidates under examination, including λ critical and SPF (sun protection factor). Since the SPF is correlated to the UV quantitative absorption of the substances, the wavelength of maximum absorption (λmax) and the molar extinction coefficient (ε) of the derivatives in solution (MeOH-DMSO) were evaluated (Figures S1 and S2, Supplementary Materials). The UV spectra of the compounds BZTidr1–6 and BZTcin1–5 were recorded in the UVA-UVB range (290–400 nm) to evaluate their profile and compare it to that of the PBSA, a commercial UVB filter that has a λmax of 302 nm. After this peak, the absorbance of PBSA drops, reaching almost zero in the 325 nm range, and thus not providing absorption in the UVA region.
# Once the λmax of each derivative was established, the molar extinction coefficient ε was calculated by applying the Lambert-Beer equation (Table S1, Supplementary Materials): the higher this value, the greater the ability of the compound under examination to absorb UV radiation. […] The excellent values of BZTidr1, BZTidr2 and BZTidr3 are ascribed to the aforementioned hyperchromic shift. In regard to the BZTcin1–5 series, the molar extinction coefficients calculated were very high, and the best values were those of BZTcin1, BZTcin2 and BZTcin3, also attributable to the hyperchromic shift of the absorption spectra. For both series, the excellent absorption capacity of ultraviolet radiation can be traced back to the high π-type conjugation that characterizes them.
# [3] = DPPH radical scavenging test; settings: mean ± SEM; for DPPH (% Inhibition): compound at 1 mg/mL, 30 min, 517 nm
# Experimental: The DPPH assay is widely used, and the simplest and fastest in vitro method for evaluating the antioxidant power of extracts or isolated compounds; it is based on the depletion of the 2,2-diphenyl-1-picrylhydrazyl radical (DPPH˙) by an antioxidant molecule with scavenger activity. This is an extremely sensitive test that can detect the activity of active ingredients present in very low concentrations.
# The procedure used was adapted from Wang et al.. Briefly, 0.750 mL of a methanolic solution of each tested compound was treated with 1.5 mL of DPPH solution (0.004%) in MeOH. Samples were stored in the dark at room temperature for 30 min, and the absorbance value was read with a spectrophotometer at 517 nm, which is the maximum peak of absorbance relative to the DPPH radical absorption spectra. The values obtained were fitted into Equation (1) and converted to inhibition percentage (%) of the radical:DPPH inhibition percentage (%) = 100 × [1 − A1/A0](1) where A1 and A0 were, respectively, the absorbance recorded with and without the sample, which are directly proportional to DPPH residual concentration in the sample and DPPH concentration in the control (0.750 of MeOH and 1.5 mL of DPPH solution). […] A linear regression was performed to calculate the sample concentration able to eliminate 50% of DPPH free radicals.
# [4] = Photostability study of 3% formulation (post-irradiation filtering parameters); settings: 3% in formulation, post irradiation
# Description: To outline the efficacy and safety profile of a sunscreen formulation, it is essential to provide data relating to photostability. It is possible to provide photodegradation data by recording, pre- and post-irradiation, the transmittance of PMMA plates with finger-coat formulations subjected to a dose of UVA capable of causing erythema, according to the criteria of Garoli et al.. By means of Equations (2) and (3) it was possible to evaluate the residual percentage of SPF in vitro and of UVA-PF for all the prepared formulations. Of greatest interest are the values obtained for the derivatives BZTcin2 and BZTcin4.
# To determine the photostability, the previously reported method was adopted, which consists in preparing each plate as mentioned above and subjecting it to solar irradiation quantified as the minimum dose of UVA equivalent to an effective radiant exposure of erythema. The protocol stipulates that, before and after exposure to sunlight, the transmission of the sun protection layer in the range of 290–400 nm is recorded.
# Using Equations (2) and (3) below, the residual percentage of SPF in vitro (% SPFeff.) and UVA-PF (% UVA-PFeff.) have been obtained, which, if greater than or equal to 80, can classify a filter as photostable. %SPFeff. = in vitro SPFafter/in vitro SPFbefore × 100(2) %UVA − PFeff. = UVA − PFafter/UVA − PFbefore × 100(3)
# [5] = FRAP (Ferric Reducing Antioxidant Power) assay; settings: Trolox standard, 37 °C 10 min, 593 nm; mean ± SEM
# Description: The FRAP (Ferric Reducing Antioxidant Power) test allows the measurement of the ability of antioxidants to reduce ferric ion to ferrous. This method represents one of the simplest, quickest and least expensive methods for the determination of reducing properties on oxidized species in vitro.
# The FRAP test (Ferric Reducing Antioxidant Power) is based on a colorimetric reaction and evaluates the ability of a sample of reducing ferric ions to ferrous ion while complexed with TPTZ (2,4,6-trispyridil-s-triazine). The FRAP solution was prepared from 0.1 M acetate buffer (pH 3.6), 10 mmol/L of TPTZ in 40 mM HCl, and 20 mM solution of FeCl3, with a 10:1:1 ratio, as described. Then, 1.9 mL of this solution was incubated with 0.1 mL of the sample solution at 37 °C for 10 min. The absorbance was read with a UV-Vis spectrophotometer at a 593 nm wavelength, relative to the maximum peak of absorbance of Fe^2+-TPTZ complex. Trolox® was used as a standard and the results are expressed as µmolTE/g.
# HaCat keratinocytes = assay: Cell growth inhibition assay, HaCat; type: cell-based, human; settings: 24 h incubation, cell count
# Experimental: All synthesized compounds were tested in order to evaluate their in vitro antiproliferative activity. The human melanoma Colo-38 cell line was selected as a tumor skin model, while the immortalized human HaCaT keratinocytes were chosen as a control for the evaluation of the cytotoxicity towards non-cancerous cells and of the selectivity towards tumor cell lines. […] The selectivity index (SI) was also calculated and is the ratio between the IC50 of a given compound towards the non-cancerous cell line and the IC50 of the same compound towards the tumor cell line.
# Cell growth inhibition assays were carried out using human melanoma Colo-38 cells and skin HaCat keratinocytes cells. Human melanoma Colo-38 cells were kindly provided by Dr. Patrizio Giacomini (Laboratory of Immunology, Regina Elena Institute, Rome, Italy). HaCat cells were kindly provided by Istituto Zooprofilattico Sperimentale della Lombardia e dell’Emilia Romagna, Brescia, Italy. Cell lines were seeded using concentrations of 40,000 cells/mL and 25,000 cells/mL, respectively. Colo-38 cells were maintained in RPMI 1640, supplemented with 10% fetal bovine serum (FBS), penicillin (100 Units mL^−1), and streptomycin (100 µg mL^−1). HaCat cells were maintained in DMEM, supplemented with 10% fetal bovine serum (FBS), penicillin (100 Units mL^−1), streptomycin (100 µg mL^−1) and glutamine (2 mM); the incubation was performed at 37 °C in a 5% CO2 atmosphere. Tested compounds were dissolved in MeOH/DMSO (1:1) to obtain 50 mM stock solutions and diluted before cell treatment in MeOH 100%. The tested compounds were added at serial dilutions to the cell cultures (from 0.1 to 100 µM) and incubated for 24 h further. Cells were then harvested, suspended in physiological solution, and counted with a Z2 Coulter Counter (Coulter Electronics, Hialeah, FL, USA). The cell number/mL and the IC50 values were determined when untreated cells were in the log phase of cell growth. Cells treated with vehicles and untreated cells were placed in each plate.
Compound,SPF [1],UVA/UVB [1],UVAPF0 [1],λc [1] [nm],ε (molar extinction coefficient) [2],λmax [2],DPPH (% Inhibition) [3],SPF [4],UVA/UVB [4],UVAPF [4],λc [4] [nm],FRAP [5],melting point [°C],DPPH IC50 [3] [µg/mL],IC50 (HaCat keratinocytes) [nM]
"O=C(C=Cc1ccccc1)Nc1nc2ccccc2s1 [BZTcin1, N-(benzo[d]thiazol-2-yl)cinnamamide]",1.74,0.93,1.38,370,33033.71,317.0 nm,0.51 ± 0.27%,2.33,0.93,1.48,364,98.69 ± 2.06 µmolTE/g,–,–,–
"COc1ccc(/C=C/C(=O)Nc2nc3ccccc3s2)cc1 [BZTcin3, (E)-N-(benzo[d]thiazol-2-yl)-3-(4-methoxyphenyl)acrylamide]",1.32,1.07,1.38,384,36271.07,334.5 nm,5.77 ± 0.00%,1.32,1.07,1.36,384,42.12 ± 1.35 µmolTE/g,260 to 262,–,–
"O=C(N/N=C/c1ccccc1)c1nc2ccccc2s1 [BZTidr1, (E)-N′-benzylidenebenzo[d]thiazole-2-carbohydrazide]",1.48,1.00,1.37,374,33223.32,319.4 nm,10.95 ± 0.12%,1.42,1.00,1.42,372,282.16 ± 15.03 µmolTE/g,227 to 230,–,–
"COc1ccc(/C=N/NC(=O)c2nc3ccccc3s2)cc1O [BZTidr5, (E)-N′-(3-hydroxy-4-methoxybenzylidene)benzo[d]thiazole-2-carbohydrazide]",1.60,1.06,1.58,387,23462.08,342.4 nm,44.00 ± 3.56%,1.60,1.06,1.56,387,1758.16 ± 60.41 µmolTE/g,–,–,–
"COc1cc(/C=N/NC(=O)c2nc3ccccc3s2)ccc1O [BZTidr6, (E)-N′-(3-methoxy-4-hydroxybenzylidene)benzo[d]thiazole-2-carbohydrazide]",1.24,1.06,1.36,389,22071.63,344.8 nm,>90.00%,1.24,1.06,1.36,389,3826.51 ± 90.60 µmolTE/g,–,26.22 ± 1.81,–
"O=C(O)/C=C/c1ccc(O)c(O)c1 [Caffeic acid, reference compound]",–,–,–,–,–,–,79.95 ± 0.88%,–,–,–,–,"10,160.24 ± 21.48 µmolTE/g",–,5.26 ± 0.41,–
"N.N.[Cl][Pt][Cl] [Cisplatin, reference compound]",–,–,–,–,–,–,–,–,–,–,–,–,–,–,2000 ± 400
"O=S(=O)(O)c1ccc2nc(-c3ccccc3)[nH]c2c1 [PBSA, 2-phenyl-1-H-benzimidazole-5-sulfonic acid, reference compound]",1.91,0.67,1.13,357,23881.86,302.0 nm and 302 nm,<LOQ *,1.98,0.67,1.13,355,<LOQ *,–,–,–
